Our source for the TGI values is PubChem BioAssay (NCI).

Some test systems named below: ACHN renal; COLO 205 colon; EKVX NSCLC; HCT-15 colon; IGROV1 ovarian; K-562 leukemia; KM12 colon; NCI-H460 lung; SF-268 CNS; SF-295 CNS; SF-539 CNS; SK-MEL-2 melanoma; SK-MEL-28 melanoma; SK-MEL-5 melanoma; SNB-75 CNS; SR leukemia; SW-620 colon; UO-31 renal; MDA-MB-435; NCI-H522 lung.
Common to all, as to assay: NCI anticancer screen, dose series, 48 h

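1) Cells in 96-well plates. 2) Compound, 48 h, 5 concentrations. 3) Linear interpolation between surrounding doses. 4) Unreached endpoint = highest concentration. TGI marks complete inhibition of growth.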

On to `C#CCCCCC#Cc1ccccc1C(=O)OC`, for which the TGI in the test with ACHN renal was > 100 µM; with COLO 205 colon, > 100 µM; with EKVX NSCLC, > 100 µM; with HCT-15 colon, > 100 µM; in the test on IGROV1 ovarian, > 100 µM; with K-562 leukemia it was 67.4 µM. The TGI with KM12 colon, with NCI-H460 lung, with SF-268 CNS, in the test on SF-295 CNS, in the test with SF-539 CNS and in the test on SK-MEL-2 melanoma was > 100 µM each time. Besides, the TGI with SK-MEL-28 melanoma is > 100 µM; with SK-MEL-5 melanoma it was > 100 µM; in the test on SNB-75 CNS, 86.5 µM; in the test with SR leukemia it was 29.2 µM; in the test on SW-620 colon, 46.1 µM; with UO-31 renal, > 100 µM.

For the molecule `C=CCN1C(=O)/C(=C/c2ccccc2)N=C1SC1OC(COC(=O)c2ccccc2)C(OC(=O)c2ccccc2)C1OC(=O)c1ccccc1` (stereo not given), the TGI in the test on ACHN renal, in the test with COLO 205 colon, with EKVX NSCLC, with HCT-15 colon, in the test on IGROV1 ovarian and in the test with K-562 leukemia was > 100 µM in each case. Besides, the TGI in the test on KM12 colon was > 100 µM; with MDA-MB-435, > 100 µM; in the test with NCI-H460 lung it was > 100 µM; with NCI-H522 lung it was 41.5 µM; in the test with SF-295 CNS, > 100 µM; with SF-539 CNS, > 100 µM. For the same molecule, the TGI with SK-MEL-2 melanoma, in the test on SK-MEL-28 melanoma, in the test on SK-MEL-5 melanoma, with SNB-75 CNS, in the test on SR leukemia and in the test on SW-620 colon was > 100 µM each time.

For `C=C(C(=O)C(=O)Oc1ccc(Cl)cc1)C(=O)c1ccc(C)cc1`, the TGI in the test with ACHN renal, with COLO 205 colon, in the test on EKVX NSCLC, in the test with HCT-15 colon, in the test on IGROV1 ovarian and with K-562 leukemia was > 100 µM throughout. The TGI was 42.5 µM with KM12 colon; > 100 µM with NCI-H460 lung; 40 µM with NCI-H522 lung; > 100 µM in the test with SF-268 CNS; > 100 µM in the test on SF-295 CNS; 34.7 µM in the test on SF-539 CNS. Moreover, the TGI in the test on SK-MEL-2 melanoma is > 100 µM; in the test with SK-MEL-28 melanoma, > 100 µM; with SK-MEL-5 melanoma, > 100 µM; in the test with SNB-75 CNS it was > 100 µM; in the test on SR leukemia it was 57.6 µM; in the test with SW-620 colon, 36.4 µM. Further, the TGI with UO-31 renal was > 100 µM.

For `CCOC(=O)c1csc(NC(=O)CCN(CC)CC)n1`, the TGI in the test with ACHN renal was > 100 µM; in the test on COLO 205 colon it was 84.8 µM; in the test with EKVX NSCLC, > 100 µM; in the test with HCT-15 colon, 75.3 µM; with IGROV1 ovarian, > 100 µM; in the test on K-562 leukemia, > 100 µM. The TGI in the test on KM12 colon was 52.8 µM; in the test with MDA-MB-435, > 100 µM; in the test on NCI-H460 lung, > 100 µM; in the test on SF-295 CNS, > 100 µM; in the test with SF-539 CNS, 56.8 µM; in the test on SK-MEL-2 melanoma it was > 100 µM. Also, the TGI in the test with SK-MEL-28 melanoma was 62 µM; in the test on SK-MEL-5 melanoma, > 100 µM; in the test with SNB-75 CNS it was 73.5 µM; in the test on SR leukemia, > 100 µM; in the test with SW-620 colon, 92.8 µM; with UO-31 renal, > 100 µM.

As for `COC(=O)C1C(C(=O)OC)N(Cc2ccccc2)C(=O)N1Cc1ccccc1` (stereo not given), the TGI in the test with ACHN renal, with COLO 205 colon, in the test with EKVX NSCLC, in the test on IGROV1 ovarian, with K-562 leukemia and in the test with KM12 colon was > 100 µM throughout. In addition, the TGI with MDA-MB-435 was > 100 µM; in the test on NCI-H460 lung, > 100 µM; with NCI-H522 lung, 96.3 µM; with SF-268 CNS, > 100 µM; in the test with SF-295 CNS, > 100 µM; in the test on SF-539 CNS it was > 100 µM. Moreover, the TGI in the test with SK-MEL-2 melanoma, with SK-MEL-28 melanoma, with SK-MEL-5 melanoma, in the test on SNB-75 CNS, in the test on SW-620 colon and in the test with UO-31 renal was > 100 µM in each case.

For the molecule `COCCOCOc1ccc(OCc2ccccc2)cc1`, the TGI in the test with COLO 205 colon is > 100 µM; in the test on EKVX NSCLC, 97.3 µM; with HCT-15 colon, > 100 µM; with IGROV1 ovarian, > 100 µM; with K-562 leukemia, > 100 µM; in the test on KM12 colon, > 100 µM. The TGI in the test on NCI-H460 lung, in the test with SF-268 CNS, in the test with SF-295 CNS, in the test with SF-539 CNS, in the test on SK-MEL-2 melanoma and in the test with SK-MEL-28 melanoma was > 100 µM in each case. The TGI was > 100 µM in the test with SK-MEL-5 melanoma, > 41.1 µM in the test with SNB-75 CNS, > 100 µM with SW-620 colon and > 100 µM in the test with UO-31 renal.

Regarding `CCN1c2ccccc2-n2c(C)nnc2-c2c1n[nH]c2-c1ccccc1`, the TGI is > 100 µM in the test with ACHN renal; > 100 µM with COLO 205 colon; > 100 µM in the test on EKVX NSCLC; > 100 µM in the test with HCT-15 colon; > 100 µM in the test on IGROV1 ovarian; 26 µM in the test on K-562 leukemia. The TGI was > 100 µM in the test on KM12 colon; 82.9 µM with MDA-MB-435; > 100 µM in the test with NCI-H460 lung; 5.98 µM in the test with NCI-H522 lung; > 100 µM with SF-268 CNS; > 100 µM with SF-295 CNS. Besides, the TGI in the test on SF-539 CNS was > 100 µM; in the test with SK-MEL-2 melanoma it was 45.6 µM; in the test on SK-MEL-28 melanoma it was > 100 µM; in the test with SK-MEL-5 melanoma, 35.3 µM; in the test on SNB-75 CNS, > 100 µM; in the test on SR leukemia it was 59.2 µM. The TGI in the test with SW-620 colon and with UO-31 renal was > 100 µM in each case.

Consider `CC(C)OP(=O)(OC(C)C)c1c(Nc2ccccc2)n[nH]c1N`, for which the TGI in the test with ACHN renal, in the test on COLO 205 colon, with EKVX NSCLC, in the test on HCT-15 colon, in the test on IGROV1 ovarian and in the test with K-562 leukemia was > 100 µM in each case. Besides, the TGI in the test on KM12 colon, with MDA-MB-435, with NCI-H460 lung, with NCI-H522 lung, in the test with SF-268 CNS and in the test on SF-295 CNS was > 100 µM each time. The TGI with SF-539 CNS, in the test on SK-MEL-2 melanoma, with SK-MEL-28 melanoma, in the test on SK-MEL-5 melanoma, in the test on SNB-75 CNS and in the test with SR leukemia was > 100 µM each time. The TGI in the test on SW-620 colon and in the test on UO-31 renal was > 100 µM each time.

Take `C/C(CCOC1CCCCO1)=C(\C)[Si](C)(C)C` (stereo not given): the TGI with ACHN renal, with COLO 205 colon, with EKVX NSCLC, with HCT-15 colon, in the test on IGROV1 ovarian and in the test on K-562 leukemia was > 100 µM throughout. The TGI with KM12 colon, in the test with NCI-H460 lung, with NCI-H522 lung, with SF-268 CNS, in the test with SF-295 CNS and in the test with SF-539 CNS was > 100 µM in each case. In addition, the TGI in the test on SK-MEL-2 melanoma, with SK-MEL-28 melanoma, in the test with SK-MEL-5 melanoma, in the test with SNB-75 CNS, in the test with SR leukemia and with SW-620 colon was > 100 µM each time. The TGI in the test with UO-31 renal was > 100 µM.

Regarding `C[C@]12CC[C@@H]3c4ccc(O)cc4CC[C@H]3[C@@H]1C/C(=C\c1ccncc1)C2=O`, the TGI in the test on ACHN renal is > 100 µM; in the test on COLO 205 colon, > 100 µM; in the test on EKVX NSCLC, > 100 µM; with HCT-15 colon, > 100 µM; in the test on IGROV1 ovarian it was 68.3 µM; in the test on K-562 leukemia, > 100 µM. The TGI in the test on KM12 colon is 37.6 µM; in the test on MDA-MB-435, 74.9 µM; with NCI-H460 lung, > 100 µM; in the test on SF-268 CNS it was > 100 µM; in the test on SF-295 CNS, > 100 µM; in the test on SF-539 CNS, 28.9 µM. Besides, the TGI with SK-MEL-2 melanoma is 48.7 µM; with SK-MEL-28 melanoma it was > 100 µM; in the test with SK-MEL-5 melanoma it was 27.9 µM; with SNB-75 CNS, > 100 µM; in the test with SR leukemia it was > 100 µM; with SW-620 colon, > 100 µM. In addition, in the test on UO-31 renal, the TGI was > 100 µM.

`Oc1ccc(/C=C/c2cc(O)cc(O)c2)cc1`: the TGI with ACHN renal, in the test on EKVX NSCLC, in the test with HCT-15 colon, in the test with KM12 colon, in the test on MDA-MB-435 and in the test with NCI-H460 lung was > 100 µM in each case. Further, the TGI in the test on SF-268 CNS, in the test with SF-295 CNS, in the test on SF-539 CNS, in the test on SK-MEL-2 melanoma, in the test on SK-MEL-28 melanoma and with SNB-75 CNS was > 100 µM throughout. Also, the TGI with SR leukemia, in the test with SW-620 colon and in the test with UO-31 renal was > 100 µM throughout.
